target: T1, hα1A (Homo sapiens, UniProt P35348); test: Radioligand binding, hα1A receptor ([3H]prazosin)
T1 construct: expressed in transfected cells; host or cells: Chinese hamster ovary cells (membrane preparation)
T1 sequence (P35348 1-466): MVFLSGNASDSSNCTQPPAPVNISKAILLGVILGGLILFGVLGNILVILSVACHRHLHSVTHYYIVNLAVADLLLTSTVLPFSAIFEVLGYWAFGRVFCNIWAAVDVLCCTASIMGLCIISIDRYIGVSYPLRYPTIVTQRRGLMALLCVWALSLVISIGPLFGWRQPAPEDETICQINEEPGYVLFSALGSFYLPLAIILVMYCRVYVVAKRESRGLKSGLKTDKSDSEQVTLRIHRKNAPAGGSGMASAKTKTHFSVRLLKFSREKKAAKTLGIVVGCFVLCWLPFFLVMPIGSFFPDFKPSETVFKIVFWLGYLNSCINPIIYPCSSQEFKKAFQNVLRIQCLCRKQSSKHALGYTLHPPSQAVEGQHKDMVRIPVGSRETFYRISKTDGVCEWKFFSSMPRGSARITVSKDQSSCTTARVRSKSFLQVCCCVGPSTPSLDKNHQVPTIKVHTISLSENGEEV
Description: Binding affinities at human monoamine receptors and transporters were assessed as previously reported. A detailed description of the methodology is provided in the Supplementary information.
Data analysis was performed with Prism software (version 10.1.2, GraphPad Software, Boston, MA, USA). The IC50 values from the radioligand binding assays were determined by nonlinear regression, using three independent concentration-response curves fitted to a one-site model. The Cheng-Prusoff equation was used to calculate Kᵢ values for the competing ligands. EC50 values were determined by applying nonlinear regression to concentration-response curves. Bias factors (β) were calculated based on the relative intrinsic activity approach. More detailed information can be found in the Supplementary information. Mean values for total number of HTR, change in body temperature from pre to post session (Δ°C), and total distance traveled (cm) for each drug dose were compared (p < 0.05) via Welch’s ANOVA with Dunnett’s T3 post test, comparing all doses to respective vehicle controls (0 mg/kg). Welch’s ANOVA with Dunnett’s T3 post test was also used to compare drug concentrations, but the data were compared to DOM in this case. Dose–response relationships for HTR and locomotor activities were plotted using bell-shaped curve fits, while temperature change data were plotted using four-parameter non-linear regression curve fits. The ascending phase of the HTR curve for each drug was used to determine ED50 potency values from four parameter non-linear regression fits. For combined DOM and DOAM administration, the plasma, brain tissue, and brain dialysate drug concentrations were compared using paired t-tests (p < 0.05). Ratios were compared using Holm-Sidak’s post hoc test following a repeated-measures one-way ANOVA (F (1.709, 6.835) = 70.80; p < 0.0001).
3.1 Assessment of receptor and transporter binding affinities
Membrane preparations were prepared from cells transfected with the respective target. The membrane preparations were then incubated with selective radioligands at concentrations equal to the corresponding Kd and displacement of the ligand by the drugs was measured. The difference between total binding and nonspecific binding (determined in the presence of selective competitors) was defined as specific binding of the radioligand to the target receptor. The following transfected cell lines were used for the binding assays: HEK 293 cells (h5-HT1A, h5-HT2A, h5-HT2B, h5-HT2C, and hD2 receptors, hDAT, hNET, and hSERT), Chinese hamster ovary cells (hα 1A receptor), and Chinese hamster lung cells (hα 2A receptor).
3.1.1 Membrane preparations for receptor and transporter binding
For producing membrane preparations, transfected cells were harvested with trypsin/EDTA, washed with ice-cold phosphate buffered saline, and then pelleted by centrifugation (210 × g for 5 min at 4 °C). The pellets were frozen and stored at -80 °C until use. Frozen pellets were resuspended in 20 m L (receptor binding) or 400 m L (transporter binding) buffer (20 mM HEPES -NaOH, 10 mM EDTA, pH 7.4), and homogenized at 1,100 × g for 20 s (receptor binding) or 560 × g for 15 s (transporter binding); the homogenates were then centrifuged at 48,000 × g for 30 min at 4 °C. For receptor binding assays, the supernatants were discarded and the pellets were resuspended in 20 mL buffer (20 mM HEPES-NaOH, 0.1 mM EDTA, pH 7.4) and homogenized at 1 ,100 × g for 20 s. Centrifugation and discarding of the supernatant were repeated once, and the final pellet was then resuspended in buffer and homogenized.
3.1.2 Serotonin 5-HT1A and 5-HT2A receptor binding
Competitive binding at the h5-HT1A and h5-HT2A receptor was determined using 0.90 nM [ 3H]8-hydroxy-2-(di-n-propylamine)tetralin ([ 3H]8-OH-DPAT; h5-HT1A receptor agonist) and 0.40 nM [3H]ketanserin (h5-HT2 receptor antagonist) as radioligands. The density and affinity of [ 3H]8-OH-DPAT […]

Row | SMILES | Ki [µM]
1 | COc1ccc(OC)c(CC(C)N)c1.Cl (stereo not drawn) [2,5-DMA, 2,5-Dimethoxyamphetamine hydrochloride] | 5.36
2 | CCc1cc(OC)c(CC(C)N)cc1OC (stereo not drawn) [DOET, 4-ethyl-2,5-dimethoxyamphetamine] | 4.01
3 | CCCCCc1cc(OC)c(CC(C)N)cc1OC (stereo not drawn) [DOAM, 4-amyl-2,5-dimethoxyamphetamine] | 2.52
4 | CCCCc1cc(OC)c(CC(C)N)cc1OC (stereo not drawn) [DOBU, 4-butyl-2,5-dimethoxyamphetamine] | 2.1
5 | CCCc1cc(OC)c(CC(C)N)cc1OC.Cl (stereo not drawn) [DOPR, 4-propyl-2,5-dimethoxyamphetamine hydrochloride] | 6.99
6 | COc1cc(CC(C)N)c(OC)cc1C (stereo not drawn) [DOM, 4-methyl-2,5-dimethoxyamphetamine] | 7.39

Reference: paper PMC12916490 (Molecular Psychiatry, 2025)
